The text below walks through data of ChEMBL document CHEMBL1201862, “PubChem BioAssay data set” (2004).

Some test systems named below: A498; COLO 205; EKVX; HCT-15; KM12; M14; MOLT-4; NCI-H226; NCI-H23; OVCAR-4; OVCAR-5; SF-295; SF-539; SN12C; SNB-19; SR; SW-620; U-251; SNB-75; UACC-62.
Common to all, as to test: NCI tumour cell line growth inhibition, 48 h

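Each compound was tested at five concentrations against cells in 96-well plates for 48 hours. Abbreviation: GI50, concentration required for 50% inhibition of growth.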 Active and inactive are the calls of the source. Rule as the data show it: active = GI50 up to about 1.1 µM and inactive = higher. Bounds are passed on as bounds.

Consider `N#CCCOCN(CO)c1nc(N(CO)COCCC#N)nc(N(CO)COCCC#N)n1`, for which the GI50 was > 100 µM (inactive) in the assay on A498; 18.4 µM (inactive) in the assay on COLO 205; 31.2 µM (inactive) in the assay on EKVX; 18.2 µM in the assay on HCT-15; 33 µM (inactive) with KM12; 21 µM (inactive) with M14. For the same compound, the GI50 with MOLT-4 is 21.9 µM (inactive); with NCI-H226 it was 22.7 µM (inactive); in the assay with NCI-H23 it was 31.2 µM (inactive); in the assay on OVCAR-4, 26.9 µM (inactive); in the assay with OVCAR-5, 35.2 µM (inactive); in the assay with SF-295 it was 21.7 µM (inactive). Besides, the GI50 with SF-539 was 2.5 µM (inactive); in the assay with SN12C, 20.4 µM (inactive); with SNB-19 it was 53.6 µM (inactive); in the assay with SR, 17.3 µM (inactive); with SW-620, 16.1 µM (inactive); in the assay on U-251, > 100 µM (inactive).
In the case of `CSc1nc(N)c2c(-c3ccccc3)c3c(nc2n1)CCCC3`, the GI50 in the assay with COLO 205 is > 100 µM (inactive); with EKVX, > 100 µM (inactive); with HCT-15, above 100 µM; in the assay with KM12, > 100 µM (inactive); in the assay with M14, > 100 µM (inactive); in the assay on MOLT-4, > 100 µM (inactive). Further, the GI50 was > 100 µM (inactive) with NCI-H23; 29.6 µM (inactive) with OVCAR-4; > 100 µM (inactive) in the assay on OVCAR-5; > 100 µM (inactive) in the assay with SF-295; 13.4 µM (inactive) in the assay with SF-539; > 100 µM (inactive) with SN12C. For the same compound, the GI50 in the assay with SNB-19 was > 100 µM (inactive); with SNB-75, 31.3 µM (inactive); with SR, > 100 µM (inactive); in the assay on SW-620, > 100 µM (inactive); in the assay with U-251 it was > 100 µM (inactive); in the assay on UACC-62 it was > 100 µM (inactive).
In the case of `CN(C)c1nc(N(C)C)nc(N(C)CN(C)c2ccccc2)n1`, the GI50 in the assay with HCT-15 is above 100 µM; in the assay on KM12, > 100 µM (inactive); in the assay on MOLT-4, > 100 µM (inactive); in the assay on NCI-H226, > 100 µM (inactive); in the assay with NCI-H23, > 100 µM (inactive); in the assay on OVCAR-4 it was > 100 µM (inactive). For the same compound, the GI50 in the assay on SF-295, in the assay on SF-539, in the assay with SN12C, with SNB-19, with SNB-75 and in the assay on U-251 was > 100 µM (inactive) in each case. The GI50 in the assay on UACC-62 is > 100 µM (inactive).
On to `CC(C)(C)OC(=O)NCC(=O)NC1c2ccsc2/C(=N/O)[C@H]1O` (stereo partly specified), for which the GI50 was > 100 µM (inactive) in the assay with A498; > 100 µM (inactive) with COLO 205; > 100 µM (inactive) in the assay with EKVX; above 100 µM in the assay with HCT-15; > 100 µM (inactive) with M14; > 100 µM (inactive) in the assay on MOLT-4. The GI50 in the assay on NCI-H226, in the assay with NCI-H23, in the assay with OVCAR-4, in the assay with OVCAR-5, with SF-295 and in the assay on SF-539 was > 100 µM (inactive) each time. For the same compound, the GI50 in the assay on SN12C, in the assay with SNB-19, in the assay with SR, with SW-620, in the assay on U-251 and in the assay on UACC-62 was > 100 µM (inactive) each time.
Take `COc1cc2c(cc1OC)C(C1(O)CCCCC1)NCC2` (stereo unspecified): the GI50 in the assay on COLO 205 was > 100 µM (inactive); with EKVX, > 100 µM (inactive); with HCT-15, above 100 µM; with KM12, > 100 µM (inactive); with M14, > 100 µM (inactive); in the assay with MOLT-4, > 100 µM (inactive). The GI50 in the assay with NCI-H226, in the assay with NCI-H23, in the assay on OVCAR-5, in the assay with SF-295, in the assay with SN12C and in the assay on SNB-75 was > 100 µM (inactive) each time. Further, the GI50 in the assay on SR, in the assay on SW-620, with U-251 and in the assay with UACC-62 was > 100 µM (inactive) each time.
With `O=C(NO)c1coc2ccccc2c1=O`, the GI50 with A498 is 43.2 µM (inactive); in the assay on COLO 205, 39.4 µM (inactive); in the assay on EKVX, > 100 µM (inactive); with HCT-15, above 100 µM; in the assay with KM12, > 100 µM (inactive); in the assay on M14, 67.9 µM (inactive). Further, the GI50 with MOLT-4 is > 100 µM (inactive); in the assay on NCI-H23, > 100 µM (inactive); with OVCAR-4 it was > 100 µM (inactive); with OVCAR-5, > 100 µM (inactive); in the assay on SF-295, > 100 µM (inactive); in the assay with SF-539, 78.5 µM (inactive). Further, the GI50 is > 100 µM (inactive) with SN12C; 84.9 µM (inactive) in the assay with SNB-19; 41.9 µM (inactive) in the assay with SNB-75; > 100 µM (inactive) with SW-620; > 100 µM (inactive) in the assay with U-251; > 100 µM (inactive) with UACC-62.
As to `COc1cc(Cc2ccc3c(c2C#N)N(C)c2ccccc2S3)cc(OC)c1OC`, the GI50 is 21.8 µM (inactive) in the assay on A498; 36.9 µM (inactive) in the assay on COLO 205; 40.8 µM (inactive) in the assay with EKVX; 11 µM in the assay on HCT-15; > 100 µM (inactive) in the assay on KM12; > 100 µM (inactive) in the assay with M14. Besides, the GI50 was 13.7 µM (inactive) in the assay on MOLT-4; 62.4 µM (inactive) with NCI-H226; 4.14 µM (inactive) in the assay with NCI-H23; > 100 µM (inactive) with OVCAR-4; > 100 µM (inactive) with OVCAR-5; 7.53 µM (inactive) in the assay with SF-295. Also, the GI50 is 17.8 µM (inactive) with SF-539; 22.3 µM (inactive) with SN12C; 53.5 µM (inactive) with SNB-19; 6.14 µM (inactive) with SR; > 100 µM (inactive) with SW-620; 27.2 µM (inactive) in the assay on U-251.
For `O=C1c2ccccc2OCC12OC21C=CC(Cl)=CC1` (stereo unspecified), the GI50 is 20.7 µM (inactive) in the assay on A498; 18 µM (inactive) in the assay with COLO 205; 18.7 µM (inactive) in the assay with EKVX; 28.6 µM in the assay on HCT-15; 17.6 µM (inactive) in the assay on KM12; 33.5 µM (inactive) with M14. The GI50 is 0.113 µM (active) in the assay on MOLT-4; 30.5 µM (inactive) with NCI-H226; 16 µM (inactive) with NCI-H23; 12.4 µM (inactive) in the assay with OVCAR-4; 31.8 µM (inactive) in the assay on OVCAR-5; 52.4 µM (inactive) with SF-539. Also, the GI50 in the assay with SN12C was 15.7 µM (inactive); in the assay on SNB-19, 29.8 µM (inactive); in the assay on SR it was 2.07 µM (inactive); in the assay with SW-620, 29.4 µM (inactive); in the assay with U-251, 17.3 µM (inactive); in the assay with UACC-62 it was 27.3 µM (inactive).
Consider `Cc1ccccc1-c1nc2c(C(=O)NCCN(C)C)cccc2[nH]1`, for which the GI50 was 42.3 µM (inactive) with A498; 18.5 µM (inactive) in the assay with COLO 205; > 100 µM (inactive) with EKVX; 43.8 µM with HCT-15; 52.8 µM (inactive) with KM12; 27 µM (inactive) with MOLT-4. For the same compound, the GI50 in the assay with NCI-H226 is 16 µM (inactive); in the assay on NCI-H23, 57.7 µM (inactive); in the assay with OVCAR-4, 49.1 µM (inactive); in the assay on OVCAR-5, 40.2 µM (inactive); in the assay with SF-295, 34.1 µM (inactive); in the assay with SF-539, 41.4 µM (inactive). For the same compound, the GI50 is 40.4 µM (inactive) in the assay on SN12C; 48.6 µM (inactive) in the assay with SNB-19; 39.3 µM (inactive) with SNB-75; 26.5 µM (inactive) in the assay with SW-620; 34.5 µM (inactive) in the assay with U-251; 40.3 µM (inactive) in the assay with UACC-62.
In the case of `NC(=O)Oc1ccccc1` [CARBAMIC ACID PHENYL ESTER], the GI50 was > 100 µM (inactive) in the assay with A498; > 100 µM (inactive) with COLO 205; above 100 µM in the assay with HCT-15; > 100 µM (inactive) with KM12; > 100 µM (inactive) in the assay on M14; > 100 µM (inactive) in the assay with MOLT-4. The GI50 in the assay with NCI-H226, in the assay with NCI-H23, in the assay with OVCAR-4, in the assay with SF-295, in the assay on SN12C and with SNB-19 was > 100 µM (inactive) throughout. The GI50 in the assay on SNB-75, with SR, in the assay on SW-620 and with U-251 was > 100 µM (inactive) each time.
For the compound `COCCOCOc1ccc(OCc2ccccc2)cc1`, the GI50 with A498 is > 58.5 µM (inactive); in the assay on COLO 205 it was > 100 µM (inactive); with EKVX it was > 55.7 µM (inactive); in the assay on HCT-15, above 100 µM; in the assay on KM12 it was > 100 µM (inactive); with MOLT-4, 34 µM (inactive). Besides, the GI50 is > 100 µM (inactive) with NCI-H226; > 71 µM (inactive) in the assay on NCI-H23; 35.7 µM (inactive) with OVCAR-4; > 100 µM (inactive) in the assay with OVCAR-5; > 100 µM (inactive) in the assay on SF-295; > 100 µM (inactive) in the assay with SF-539. Moreover, the GI50 in the assay on SN12C was > 100 µM (inactive); in the assay on SNB-19 it was > 100 µM (inactive); in the assay on SW-620, > 100 µM (inactive); with U-251, > 85.9 µM (inactive); in the assay on UACC-62 it was > 100 µM (inactive).
For the compound `COc1cc2c(cc1Oc1ccc(OC)c3c1CC1c4c(cc(OC)c(OC)c4-3)CCN1C)CC1c3c(cc(OC)c(OC)c3-2)CCN1C` (stereo unspecified), the GI50 is 2.77 µM (inactive) with A498; 1.48 µM (inactive) in the assay on COLO 205; 3.18 µM (inactive) with EKVX; 2.02 µM in the assay on HCT-15; 2.35 µM (inactive) in the assay with KM12; 1.25 µM (inactive) with MOLT-4. Also, the GI50 is 1.53 µM (inactive) with NCI-H226; 10.7 µM (inactive) in the assay with NCI-H23; 2.74 µM (inactive) in the assay with OVCAR-4; 6.05 µM (inactive) in the assay on OVCAR-5; 2.54 µM (inactive) with SF-295; 1.72 µM (inactive) with SF-539. In addition, the GI50 in the assay with SN12C was 6.59 µM (inactive); in the assay with SNB-19, 5.69 µM (inactive); in the assay on SNB-75 it was 2.26 µM (inactive); with SW-620 it was 1.95 µM (inactive); in the assay on U-251, 1.79 µM (inactive); with UACC-62 it was 1.97 µM (inactive).
